{"source": "patent US12540143B2", "about": "“Methods and compositions for targeted protein degradation” (Ranok Therapeutics (Hangzhou) Co. Ltd., priority 2019, dated 2026)", "note": "Structures can show the parent of a compound that is named as a salt.", "data": [{"system": "MV4-11 cells", "assay": "MV4-11 Cytotoxicity Assay", "assay_type": "cell-based, human", "conditions": "72 hr, CCK-8; read-out: MV4-11 cytotoxicity", "units": {"IC50": "nM"}, "values": [{"molecule": "CCn1c(=O)/c(=C2\\Sc3ccccc3N2C)s/c1=C\\c1cccc[n+]1CCNC(=O)C[C@@H]1N=C(c2ccc(Cl)cc2)c2c(sc(C)c2C)-n2c(C)nnc21", "note": "[Compound 8]", "IC50": "> 1000"}, {"molecule": "CCc1cc(-c2nnc(C(N)=O)n2-c2ccc(CN3CCN(CC4CCN(C(=O)C[C@@H]5N=C(c6ccc(Cl)cc6)c6c(sc(C)c6C)-n6c(C)nnc65)CC4)CC3)cc2)c(O)cc1O", "note": "[Compound 120, (S)-4-(4-((4-((1-(2-(4-(4-chlorophenyl)-2,3,9-trimethyl-6H-thieno[3,2-f][1,2,4]triazolo[4,3-a][1,4]diazepin-6-yl)acetyl)piperidin-4-yl)methyl)piperazin-1-yl)methyl)phenyl)-5-(5-ethyl-2,4-dihydroxyphenyl)-4H-1,2,4-triazole-3-carboxamide hydrochloride]", "IC50": "< 100"}]}, {"system": "MV4-11 cells", "assay": "MV4-11 Cytotoxicity Assay", "assay_type": "cell-based, human", "conditions": "Homo sapiens, MV4-11; 72 hr, CCK-8; read-out: MV4-11 cytotoxicity", "units": {"IC50": "nM"}, "values": [{"molecule": "Cc1sc2c(c1C)C(c1ccc(Cl)cc1)=N[C@@H](CC(=O)N1CCC(CN3CCN(Cc4ccc(-n5c(C(=O)NCC(F)(F)F)nnc5-c5cc(C(C)C)c(O)cc5O)cc4)CC3)CC1)c1nnc(C)n1-2", "note": "[Compound 13, 4-(4-((4-((1-(2-((6S)-4-(4-chlorophenyl)-2,3,9-trimethyl-6H-thieno[3,2-f][1,2,4]triazolo[4,3-a][1,4]diazepin-6-yl)acetyl)piperidin-4-yl)methyl)piperazin-1-yl)methyl)phenyl)-5-(2,4-dihydroxy-5-isopropylphenyl)-N-(2,2,2-trifluoroethyl)-4H-1,2,4-triazole-3-carboxamide]", "IC50": "< 100"}, {"molecule": "Cc1sc2c(c1C)C(c1ccc(Cl)cc1)=N[C@@H](CC(=O)NCCc1ccc(CN3CCC(Cc4ccc(-n5c(C(=O)NCC(F)(F)F)nnc5-c5cc(C(C)C)c(O)cc5O)cc4)CC3)cc1)c1nnc(C)n1-2", "note": "[Compound 95, (S)-4-(4-((1-(4-(2-(2-(4-(4-chlorophenyl)-2,3,9-trimethyl-6H-thieno[3,2-f][1,2,4]triazolo[4,3-a][1,4]diazepin-6-yl)acetamido)ethyl)benzyl)piperidin-4-yl)methyl)phenyl)-5-(2,4-dihydroxy-5-isopropylphenyl)-N-(2,2,2-trifluoroethyl)-4H-1,2,4-triazole-3-carboxamide, trifluoroacetic acid]", "IC50": "< 100"}, {"molecule": "Cc1sc2c(c1C)C(c1ccc(Cl)cc1)=N[C@@H](CC(=O)N1CCN(C(=O)C3CCN(c4ccc(-n5c(O)nnc5-c5cc(C(C)C)c(O)cc5O)cc4)CC3)CC1)c1nnc(C)n1-2", "note": "[Compound 29, (S)-2-(4-(4-chlorophenyl)-2,3,9-trimethyl-6H-thieno[3,2-f][1,2,4]triazolo[4,3-a][1,4]diazepin-6-yl)-1-(4-(1-(4-(3-(2,4-dihydroxy-5-isopropylphenyl)-5-hydroxy-4H-1,2,4-triazol-4-yl)phenyl)piperidine-4-carbonyl)piperazin-1-yl)ethan-1-one]", "IC50": "100 to 1000"}, {"molecule": "Cc1sc2c(c1C)C(c1ccc(Cl)cc1)=N[C@@H](CC(=O)N1CCN(c3ccc(-n4c(O)nnc4-c4cc(C(C)C)c(O)cc4O)cc3)CC1)c1nnc(C)n1-2", "note": "[Compound 79, (S)-2-(4-(4-chlorophenyl)-2,3,9-trimethyl-6H-thieno[3,2-f][1,2,4]triazolo[4,3-a][1,4]diazepin-6-yl)-1-(4-(4-(3-(2,4-dihydroxy-5-isopropylphenyl)-5-hydroxy-4H-1,2,4-triazol-4-yl)phenyl)piperazin-1-yl)ethan-1-one]", "IC50": "< 100"}, {"molecule": "Cc1sc2c(c1C)C(c1ccc(Cl)cc1)=N[C@@H](CCN(C)CCOCCOc1ccc(-n3c(O)nnc3-c3cc(C(C)C)c(O)cc3O)cc1)c1nnc(C)n1-2", "note": "[Compound 71, (S)-4-(4-(4-(2-(2-((2-(4-(4-chlorophenyl)-2,3,9-trimethyl-6H-thieno[3,2-f][1,2,4]triazolo[4,3-a][1,4]diazepin-6-yl)ethyl)(methyl)amino)ethoxy)ethoxy)phenyl)-5-hydroxy-4H-1,2,4-triazol-3-yl)-6-isopropylbenzene-1,3-diol, trifluoroacetic acid]", "IC50": "100 to 1000"}, {"molecule": "Cc1sc2c(c1C)C(c1ccc(Cl)cc1)=N[C@@H](CC(=O)N(C)CCOc1ccc(CN(C)Cc3ccc(-n4c(C(=O)NCC(F)(F)F)nnc4-c4cc(C(C)C)c(O)cc4O)cc3)cc1)c1nnc(C)n1-2", "note": "[Compound 101, (S)-4-(4-(((4-(2-(2-(4-(4-chlorophenyl)-2,3,9-trimethyl-6H-thieno[3,2-f][1,2,4]triazolo[4,3-a][1,4]diazepin-6-yl)-N-methylacetamido)ethoxy)benzyl)(methyl)amino)methyl)phenyl)-5-(2,4-dihydroxy-5-isopropylphenyl)-N-(2,2,2-trifluoroethyl)-4H-1,2,4-triazole-3-carboxamide, formic acid]", "IC50": "< 100"}, {"molecule": "CCN(CC)CCNC(=O)c1nnc(-c2cc(C(C)C)c(O)cc2O)n1-c1ccc(CN2CCN(CC3CCN(C(=O)C[C@@H]4N=C(c5ccc(Cl)cc5)c5c(sc(C)c5C)-n5c(C)nnc54)CC3)CC2)cc1", "note": "[Compound 118, (S)-4-(4-((4-((1-(2-(4-(4-chlorophenyl)-2,3,9-trimethyl-6H-thieno[3,2-f][1,2,4]triazolo[4,3-a][1,4]diazepin-6-yl)acetyl)piperidin-4-yl)methyl)piperazin-1-yl)methyl)phenyl)-N-(2-(diethylamino)ethyl)-5-(2,4-dihydroxy-5-isopropylphenyl)-4H-1,2,4-triazole-3-carboxamide, trifluoroacetic acid]", "IC50": "< 100"}, {"molecule": "CCc1cc(-c2nnc(C(=O)NCC(F)(F)F)n2-c2ccc(CC3CCN(Cc4ccc(CNC(=O)C[C@@H]5N=C(c6ccc(Cl)cc6)c6c(sc(C)c6C)-n6c(C)nnc65)cc4)CC3)cc2)c(O)cc1O", "note": "[Compound 91, (S)-4-(4-((1-(4-((2-(4-(4-chlorophenyl)-2,3,9-trimethyl-6H-thieno[3,2-f][1,2,4]triazolo[4,3-a][1,4]diazepin-6-yl)acetamido)methyl)benzyl)piperidin-4-yl)methyl)phenyl)-5-(5-ethyl-2,4-dihydroxyphenyl)-N-(2,2,2-trifluoroethyl)-4H-1,2,4-triazole-3-carboxamide, trifluoroacetic acid]", "IC50": "< 100"}, {"molecule": "Cc1sc2c(c1C)C(c1ccc(Cl)cc1)=N[C@@H](CC(=O)N1CCC(CN3CCN(Cc4ccc(-n5c(O)nnc5-c5ccc(O)cc5O)cc4)CC3)CC1)c1nnc(C)n1-2", "note": "[Compound 4, 2-((6S)-4-(4-chlorophenyl)-2,3,9-trimethyl-6H-thieno[3,2-f][1,2,4]triazolo[4,3-a][1,4]diazepin-6-yl)-1-(4-((4-(4-(3-(2,4-dihydroxyphenyl)-5-hydroxy-4H-1,2,4-triazol-4-yl)benzyl)piperazin-1-yl)methyl)piperidin-1-yl)ethanone, trifluoroacetic acid]", "IC50": "100 to 1000"}, {"molecule": "Cc1sc2c(c1C)C(c1ccc(Cl)cc1)=N[C@@H](CC(=O)NCc1ccc(CN3CCC(Cc4ccc(-n5c(C(=O)NCC(F)(F)F)nnc5-c5cc(C(C)C)c(O)cc5O)cc4)CC3)cc1)c1nnc(C)n1-2", "note": "[Compound 96, (S)-4-(4-((1-(4-((2-(4-(4-chlorophenyl)-2,3,9-trimethyl-6H-thieno[3,2-f][1,2,4]triazolo[4,3-a][1,4]diazepin-6-yl)acetamido)methyl)benzyl)piperidin-4-yl)methyl)phenyl)-5-(2,4-dihydroxy-5-isopropylphenyl)-N-(2,2,2-trifluoroethyl)-4H-1,2,4-triazole-3-carboxamide, trifluoroacetic acid]", "IC50": "< 100"}, {"molecule": "CCNC(=O)c1noc(-c2cc(C(C)C)c(O)cc2O)c1-c1ccc(CN2CCN(CC3CCN(C(=O)C[C@@H]4N=C(c5ccc(Cl)cc5)c5c(sc(C)c5C)-n5c(C)nnc54)CC3)CC2)cc1", "note": "[Compound 126, (S)-4-(4-((4-((1-(2-(4-(4-chlorophenyl)-2,3,9-trimethyl-6H-thieno[3,2-f][1,2,4]triazolo[4,3-a][1,4]diazepin-6-yl)acetyl)piperidin-4-yl)methyl)piperazin-1-yl)methyl)phenyl)-5-(2,4-dihydroxy-5-isopropylphenyl)-N-ethylisoxazole-3-carboxamide hydrochloride]", "IC50": "< 100"}, {"molecule": "Cc1sc2c(c1C)C(c1ccc(Cl)cc1)=N[C@@H](CC(=O)NCCOCCN1CCC(Cc3ccc(-n4c(O)nnc4-c4cc(C(C)C)c(O)cc4O)cc3)CC1)c1nnc(C)n1-2", "note": "[Compound 37, 2-((6S)-4-(4-chlorophenyl)-2,3,9-trimethyl-6H-thieno[3,2-f][1,2,4]triazolo[4,3-a][1,4]diazepin-6-yl)-N-(2-(2-(4-(4-(3-(2,4-dihydroxy-5-isopropylphenyl)-5-hydroxy-4H-1,2,4-triazol-4-yl)benzyl)piperidin-1-yl)ethoxy)ethyl)acetamide, trifluoroacetic acid]", "IC50": "100 to 1000"}, {"molecule": "Cc1sc2c(c1C)C(c1ccc(Cl)cc1)=N[C@@H](CC(=O)NCc1ccc(CN3CCC(Cc4ccc(-n5c(O)nnc5-c5cc(C(C)C)c(O)cc5O)cc4)CC3)cc1)c1nnc(C)n1-2", "note": "[Compound 89, (S)-2-(4-(4-chlorophenyl)-2,3,9-trimethyl-6H-thieno[3,2-f][1,2,4]triazolo[4,3-a][1,4]diazepin-6-yl)-N-(4-((4-(4-(3-(2,4-dihydroxy-5-isopropylphenyl)-5-hydroxy-4H-1,2,4-triazol-4-yl)benzyl)piperidin-1-yl)methyl)benzyl)acetamide, trifluoroacetic acid]", "IC50": "< 100"}, {"molecule": "Cc1sc2c(c1C)C(c1ccc(Cl)cc1)=N[C@@H](CC(=O)N1CCC(CN3CCN(Cc4ccc(-n5c(O)nnc5-c5cc(C(C)C)c(O)cc5O)cc4F)CC3)CC1)c1nnc(C)n1-2", "note": "[Compound 17, (S)-2-(4-(4-chlorophenyl)-2,3,9-trimethyl-6H-thieno[3,2-f][1,2,4]triazolo[4,3-a][1,4]diazepin-6-yl)-1-(4-((4-(4-(3-(2,4-dihydroxy-5-isopropylphenyl)-5-hydroxy-4H-1,2,4-triazol-4-yl)-2-fluorobenzyl)piperazin-1-yl)methyl)piperidin-1-yl)ethan-1-one, trifluoroacetic acid]", "IC50": "< 100"}, {"molecule": "Cc1sc2c(c1C)C(c1ccc(Cl)cc1)=N[C@@H](CC(=O)NCCOCCN1CCN(Cc3ccc(-n4c(O)nnc4-c4cc(C(C)C)c(O)cc4O)cc3)CC1)c1nnc(C)n1-2", "note": "[Compound 49, 2-((6S)-4-(4-chlorophenyl)-2,3,9-trimethyl-6H-thieno[3,2-f][1,2,4]triazolo[4,3-a][1,4]diazepin-6-yl)-N-(2-(2-(4-(4-(3-(2,4-dihydroxy-5-isopropylphenyl)-5-hydroxy-4H-1,2,4-triazol-4-yl)benzyl)piperazin-1-yl)ethoxy)ethyl)acetamide, trifluoroacetic acid, trifluoroacetic acid, trifluoroacetic acid, trifluoroacetic …]", "IC50": "< 100"}]}]}
